Test results reported in patent EP4692079A1, “CYP11A1 INHIBITOR AND USE THEREOF” (priority 2023, dated 2024).
Where two headings read alike, the source gives them in different places.

Assays:
[1] = system: testosterone level in NCI-H295R cells; test: cells; type: cell-based; details: for inhibition at 0.1 µM / inhibition at 1 µM / IC50: Homo sapiens, NCI-H295R, 72 h; for IC50: read-out: Testosterone level in H295R (Elisa) IC50 nM
Protocol: The purpose of the experimental study was intended to detect the testosterone level in the NCI-H295R cells by adopting the Enzyme linked immunosorbent assay (ELISA), so as to evaluate the inhibitory effects of the compounds on the testosterone level in the NCI-H295R cells.
The H295R cells were purchased from ATCC, the cell complete medium contained DMEM: F12+ 10% FBS +0.00625 mg/ml insulin +0.00625 mg/ml transferrin+6.25 ng/ml selenium +1.25 mg/ml BSA+0.00535 mg/ml linoleic acid, and the cells were cultured in a 37°C, 5% CO2 incubator. The cells in the exponential growth phase were collected, and cultured in a cytokine-free medium (phenol red 1640-free +1% PS+10% css FBS+1.25 mg/ml BSA +0.00625 mg/ml insulin + 0.00625 mg/ml transferrin+6.25 ng/ml selenium+0.00535 mg/ml linoleic acid) for three days. The cells in the exponential growth phase were collected on the third day. The cell suspension was adjusted with a cytokine-free medium to a corresponding concentration and plated at 60000 cells/well, with the volume being 90 µL/well. Subsequently, 10 µL of the compounds at different concentrations was added and the plate was incubated in a CO2 incubator for three days. After the incubation was completed, according to the operation instructions for testosterone Elisa kit (Beyotime, PT872), 50 µL of the cell culture supernatant was collected from each well and centrifuged at 500 g for 5 min at room temperature and then the resulting supernatant was collected. The samples were added to the corresponding wells at 25 µl/well, and then formulated horseradish peroxidase labelled testosterone was added at 75 µl/well. The mixture was fully mixed for 10 seconds. The reaction wells were sealed with a plate-sealing film (white) and the mixture was incubated at room temperature in the dark for 120 min. The plate was washed three times with a volume of 300 µl per well, and then placed onto thick absorbent paper and dried. Chromogenic reagent TMB solution was added at 100 µl/well. The reaction wells were sealed with a plate-sealing film (white) and the mixture was incubated at room temperature in the dark for 15-20 min. Subsequently, a termination solution was added at 50 µl/well, and after the mixture was fully mixed, the absorbance value OD450 was immediately measured. The absorbance readings were processed using Graphpad Prim 8.0 software and S-shaped concentration curves were plotted and the IC50 values were calculated using a four-parameter non-linear regression model.

[2] = Pharmacokinetic test in rats; type: in vivo; details: rat, male SD rats, plasma; for Vd: read-out: Vdss
Protocol: 3.1 Experimental animals: Male SD rats (about 220 g, 6-8 weeks old, 6 rats/compound) were purchased from Chengdu Dossy Experimental Animals Co., Ltd.
3.2 Experimental design: On the day of the experiment, the SD rats were randomly grouped by body weight. […] Table 4 Administration information
Before and after the administration, 0.1 ml of blood was taken from the orbit of the animals under isoflurane anaesthesia and placed in an EDTAK2 centrifuge tube. The blood was centrifuged at 5000 rpm and 4°C for 10 min to collect plasma. […] Before analysis and detection, all samples were stored at -80°C. Table 5 Pharmacokinetic parameters of test compounds in plasma of rats

[3] = read-out: Testosterone level in H295R (Elisa) inh.% 100 nM, 100 nM compound, NCI-H295R cells, three days incubation
[4] = read-out: Testosterone level in H295R (Elisa) inh.% 1000 nM, 1000 nM compound, NCI-H295R cells, three days incubation
[5] = read-out: Testosterone level in H295R (Elisa) inh.% 100 nM
[6] = read-out: Testosterone level in H295R (Elisa) inh.% 1000 nM
[7] = po, intragastric administration (10 mg/kg)
[8] = intravenous administration (2.5 mg/kg)

Row | Compound | inhibition at 0.1 µM [1, 3] [%] | inhibition at 1 µM [1, 4] [%] | further results
1 | O=C(N[C@H]1CC[C@H](CCc2coc(CN3Cc4ccc(C(F)(F)F)cc4C3)cc2=O)CC1)[C@@H]1CC1(F)F [Compound 112] | 74 | 78 | 
2 | C/C(=C\[C@H]1CC[C@H](NC(=O)c2cnn(C)c2)CC1)c1coc(CN2Cc3ccc(C(F)(F)F)cc3C2)cc1=O [Compound 107] |  |  | inhibition at 0.1 µM [1, 5]: 60%; inhibition at 1 µM [1, 6]: 78%; AUC(0-t) [2, 7]: 22500 ng·h/mL; half-life [2, 7]: 4.15 h; AUC(0-t) [2, 8]: 6030 ng·h/mL; clearance [2, 8]: 6.96 mL/min/kg; half-life [2, 8]: 3.39 h; Vd [2, 8]: 1.55 L/kg
3 | O=c1cc(CN2Cc3ccc(C(F)(F)F)cc3C2)occ1OC[C@H]1CC[C@H](NS(=O)(=O)c2ccsc2)CC1 [Compound 68] | 81 | 86 | 
4 | O=C(N[C@H]1CC[C@@H](COc2coc(CN3Cc4ccc(C(F)(F)F)cc4C3)cc2=O)CC1)C1CC1(F)F (some centres unmarked) [Compound 55] | 63 | 72.7 | 
5 | C#Cc1ccc2c(c1)CN(Cc1cc(=O)c(OCC3CCN(C(=O)OC4COC4)CC3)co1)C2 [Compound 6] | 79.5 | 90.8 | 
6 | O=C(OC1CC1)N1CCC(COc2coc(CN3Cc4ccc(OC5CCC5)cc4C3)cc2=O)CC1 [Compound 49] | 67.3 | 75.2 | 
7 | CS(=O)(=O)N[C@H]1C[C@H](C(=O)N2CCC(COc3coc(CN4Cc5ccc(C(F)(F)F)cc5C4)cc3=O)CC2)C1 [Compound 72] | 58 | 68 | 
8 | O=C(OC1CC1)N1CCC(/C=C/c2coc(CN3Cc4ccc(C(F)(F)F)cc4C3)cc2=O)CC1 [Compound 31] |  |  | AUC(0-t) [2, 7]: 13400 ng·h/mL; half-life [2, 7]: 5.65 h; AUC(0-t) [2, 8]: 4270 ng·h/mL; clearance [2, 8]: 9.48 mL/min/kg; half-life [2, 8]: 5.16 h; Vd [2, 8]: 3.41 L/kg
9 | CS(=O)(=O)N1CC(OC(=O)N2CC(COc3coc(CN4Cc5ccc(C(F)(F)F)cc5C4)cc3=O)C2)C1 [Compound 60] | 57.7 | 78.5 | 
10 | O=C(N[C@H]1CC[C@H](COc2coc(CN3Cc4ccc(C(F)(F)F)cc4C3)cc2=O)CC1)[C@@H]1CC1(F)F [Compound 66] | 78 | 82 | 
11 | O=C(CC(F)(F)F)N[C@H]1CC[C@H](/C=C/c2coc(CN3Cc4ccc(C(F)(F)F)cc4C3)cc2=O)CC1 [Compound 102] | 79 | 82 | 
12 | O=C(C1CC(F)(F)C1)N1CCC(COc2coc(CN3Cc4ccc(C(F)(F)F)cc4C3)cc2=O)CC1 [Compound 73] | 83 | 87 | 
13 | O=C(O[C@H]1CCOC1)N1CCC(/C=C/c2coc(CN3Cc4ccc(OC5CC5)cc4C3)cc2=O)CC1 [Compound 48] | 72.4 | 78.5 | 
14 | CS(=O)(=O)N1CC(OC(=O)N2CCC(COc3coc(CN4Cc5ccc(OC6CC6)cc5C4)cc3=O)CC2)C1 [Compound 25] | 56 | 77 | 
15 | CC(F)(F)C(=O)N[C@H]1CC[C@H](/C=C/c2coc(CN3Cc4ccc(C(F)(F)F)cc4C3)cc2=O)CC1 [Compound 108] | 75 | 84 | 
16 | CS(=O)(=O)N1CCC2(CC1)CC2C(=O)N1CCC(COc2coc(CN3Cc4ccc(C(F)(F)F)cc4C3)cc2=O)CC1 (single isomer, unassigned) [Compound 70] |  |  | Testosterone level in H295R (Elisa) inh.% 100 nM ([1]; 100 nM compound, NCI-H295R cells, three days incubation): 60%; Testosterone level in H295R (Elisa) inh.% 1000 nM ([1]; 1000 nM compound, NCI-H295R cells, three days incubation): 83%
17 | O=c1cc(CN2Cc3ccc(C(F)(F)F)cc3C2)occ1/C=C/[C@H]1CC[C@H](NC(=O)[C@H]2C[C@@H](F)C2)CC1 [Compound 100] |  |  | inhibition at 0.1 µM [1, 5]: 70%; inhibition at 1 µM [1, 6]: 85%; AUC(0-t) [2, 7]: 17500 ng·h/mL; half-life [2, 7]: 2.29 h; AUC(0-t) [2, 8]: 4660 ng·h/mL; clearance [2, 8]: 8.86 mL/min/kg; half-life [2, 8]: 1.8 h; Vd [2, 8]: 1.29 L/kg
18 | C#CCCS(=O)(=O)N1CCC(COc2coc(CN3Cc4ccc(C(F)(F)F)cc4C3)cc2=O)CC1 [Compound 12] | 85.6 | 83.4 | 

Row | Compound | inhibition at 0.1 µM [1, 3] [%] | inhibition at 1 µM [1, 4] [%] | further results
19 | O=C(N[C@H]1CC[C@H](CCc2coc(CN3Cc4ccc(C(F)(F)F)cc4C3)cc2=O)CC1)[C@H]1CC1(F)F [Compound 113] | 76 | 77 | 
20 | O=C(OC1CC1)N1CC(/C=C/c2coc(CN3Cc4ccc(C(F)(F)F)cc4C3)cc2=O)C1 [Compound 53] | 61 | 67.3 | 
21 | CS(=O)(=O)N1CC(OC(=O)N2CCC(/C=C/c3coc(CN4Cc5ccc(C(F)(F)F)cc5C4)cc3=O)CC2)C1 [Compound 26] | 61 | 78 | 
22 | O=C(OC1CC1)N1CCC(COc2coc(CN3Cc4ccc(C(F)(F)F)cc4C3)cc2=O)CC1 [Compound 32] | 76.1 | 64.3 | IC50 [1]: 117 nM
23 | CS(=O)(=O)N1CCC2(CC1)CC(C(=O)N1CCC(COc3coc(CN4Cc5ccc(C(F)(F)F)cc5C4)cc3=O)CC1)C2 [Compound 75] | 69 | 78 | 
24 | O=c1cc(CN2Cc3ccc(C(F)(F)F)cc3C2)occ1OC[C@H]1CC[C@@H](NS(=O)(=O)CC2CC2)CC1 [Compound 10] | 63 | 79.7 | 
25 | CS(=O)(=O)N1CC(OC(=O)N2CC3C(COc4coc(CN5Cc6ccc(C(F)(F)F)cc6C5)cc4=O)C3C2)C1 (centres unmarked) [Compound 77] | 71 | 84 | 
26 | CC(OC(=O)N1CCC(COc2coc(CN3Cc4ccc(C(F)(F)F)cc4C3)cc2=O)CC1)C(F)(F)F (single isomer, unassigned) [Compound 56] | 53.6 | 79.3 | 
27 | CC1(NC2CCC(/C=C/c3coc(CN4Cc5ccc(C(F)(F)F)cc5C4)cc3=O)CC2)COC1 (single isomer, unassigned) [Compound 122] | 63 | 82 | 
28 | O=C(N[C@H]1CC[C@H](COc2coc(CN3Cc4ccc(C(F)(F)F)cc4C3)cc2=O)CC1)[C@H]1CC1(F)F [Compound 65] | 80 | 78 | 
29 | Cn1ncc(C(=O)N[C@H]2CC[C@H](/C=C/c3coc(CN4Cc5ccc(C(F)(F)F)cc5C4)cc3=O)CC2)c1F [Compound 106] | 69 | 93 | 
30 | O=C(N[C@H]1CC[C@H](COc2coc(CN3Cc4ccc(OC5CC5)cc4C3)cc2=O)CC1)C1CC1 [Compound 34] |  |  | IC50 [1]: 122 nM
31 | O=C(N[C@H]1CC[C@H](C(=O)Nc2coc(CN3Cc4ccc(C(F)(F)F)cc4C3)cc2=O)CC1)C1CC1 [Compound 119] | 60 | 81 | 
32 | Cc1nc(C(=O)N[C@H]2CC[C@H](COc3coc(CN4Cc5ccc(OC6CC6)cc5C4)cc3=O)CC2)cs1 [Compound 47] | 72.2 | 69.3 | 
33 | O=c1cc(CN2Cc3ccc(C(F)(F)F)cc3C2)occ1/C=C/[C@H]1CC[C@H](NS(=O)(=O)CC2CC2)CC1 [Compound 62] | 67 | 79 | 
34 | CS(=O)(=O)N1CCC2(CC1)CC2C(=O)N1CCC(COc2coc(CN3Cc4ccc(C(F)(F)F)cc4C3)cc2=O)CC1 (single isomer, unassigned) [Compound 69] | 62 | 76 | 
35 | CS(=O)(=O)N1CC(OC(=O)N2CCC(COc3coc(CN4Cc5ccc(S(F)(F)(F)(F)F)cc5C4)cc3=O)CC2)C1 [Compound 19] | 64.8 | 78.3 | 
36 | O=C(CC1CC1)N1CCC(/C=C/c2coc(CN3Cc4ccc(C5CC5)cc4C3)cc2=O)CC1 [Compound 16] | 55 | 79.6 | IC50 [1]: 98.3 nM
